Columns and labels:
[1] = Maillard reaction with glycine, absorbance at 480 nm; format: physicochemical; conditions: for Coloration degree (480 nm): one % glycine, 10% saccharide, pH 7.0, 100°C., 90 min, 1-cm cell
Protocol: A solution, containing one % glycine and 10% of a saccharide preparation PI, P II, P III, P IV or P V in Experiment 4 and 50 mM phosphate buffer (pH 7.0), was kept at 100° C. for 90 min, followed by cooling the resultant solution, and determining for absorbance at a wave length of 480 nm in a 1-cm cell. As a control, maltotriose, maltotetraose, maltopentaose, maltohexaose and maltoheptaose, as a material for the saccharide preparations, were similarly treated as above, and measured for absorbance at a wave length of 480 nm.
A solution, containing one % of glycine, 10% of a high-purity trehalose preparation with a purity of 99.5%, d.s.b., obtained by the method in Experiment 17, and 50 mM phosphate buffer (pH 7.0), was kept at 100° C. for 90 min, followed by cooling the resultant solution and determining the absorbance at a wave length of 480 nm in a 1-cm cell. As a control, glucose and maltose were similarly treated as above, and the resultants were determined for absorbance at a wave length of 480 nm.

[2] = system: non-reducing saccharide-forming enzyme; format: biochemical, Rhizobium sp. M-11; conditions: for Percentage of remaining substrate on HPLC: non-reducing saccharide-forming enzyme, 48 h, pH 7; for Percentage of newly formed product (P I to P V) on HPLC: 20 w/v % substrate, 2 units/g, 40°C., pH 7.0, 48 hours, label = substrate
Protocol: An aqueous solution containing 20 w/v % glucose, maltose, maltotriose, maltotetraose, maltopentaose, maltohexaose or maltoheptaose as a substrate was prepared, and mixed with 2 units/g substrate, d.s.b., of the purified enzyme preparation obtained in Experiment 2, and the resultant mixture was subjected to an enzymatic reaction at 40° C. and pH 7.0 for 48 hours. The reaction mixture was desalted and analyzed on high-performance liquid chromatography (HPLC) using "WAKOBEADS WB-T-330 COLUMN", a product of Wako Pure Chemical Industries Ltd., Tokyo, Japan. The HPLC procedure was conducted at ambient temperature and a flow rate of 0.5 ml/min of water as an eluent, and "RI-8012", a differential refractometer commercialized by Tosho Corporation, Tokyo, Japan, was used for analyzing reaction products.

[3] = Reducing power on the Somogyi-Nelson's method expressed by DE; format: physicochemical; conditions: d.s.b.
Protocol: The reducing powders of these novel high-purity saccharides were determined on the Somogyi-Nelson's method and expressed by DE.

glucoamylase = test: Enzymatic hydrolysis by glucoamylase; format: biochemical
Protocol: Fifty mg aliquots of non-reducing saccharide preparations P I, P II, P III, P IV and P V in Experiment 4 were respectively dissolved in one ml of 50 mM acetate buffer (pH 4.5), admixed with one unit of glucoamylase commercialized by Seikagaku-Kogyo Co., Ltd., Tokyo, Japan, to effect enzymatic hydrolysis at 40° C. for 6 hours. HPLC analysis only detected glucose and trehalose in all resultant mixtures. The percentages and the molecular ratios of glucose to trehalose in each saccharide are in Table 5.

[4] = Acute toxicity test (Experiment 8); conditions: mouse, in vivo, po
Source text: (§1) By using 7-week old dd-strain mice, the non-reducing saccharide preparation P I, P II, P III, P IV or P V was orally administered to the mice for acute toxicity test.

mice = test: Acute toxicity test (Experiment 8); conditions: oral, highest possible doses
Source text: as §1

β-amylase = test: Hydrolysis by β-amylase; format: biochemical
α-glucosidase = test: Hydrolysis by α-glucosidase derived from rice; format: biochemical; conditions: pH 4.0, 37°C., 18 hours
Protocol: (§2) The enzymatic reaction with the α-amylase was as follows: Dissolve 10 mg of a substrate in one ml of 50 mM phosphate buffer (pH 6.9), mix the resultant solution with one unit of the α-amylase, and incubate the resultant mixture at 37° C. for 18 hours. The enzymatic reaction with the α-glucosidase was conducted under the same conditions as in the case of α-amylase except that 50 mM acetate buffer (pH 4.0) was used as a buffer. The enzymatic reaction using the rat intestinal acetone powder was carried out under the same conditions as in the case of α-amylase except that 50 mM maleate buffer (pH 6.0) was used as a buffer. The saccharide compositions obtained by the α-amylase, α-glucosidase and rat intestinal acetone powder are respectively in Tables 6, 7 and 8.

[5] = Hydrolysis by rat intestinal acetone powder; format: in vitro ADME; conditions: pH 6.0, 37°C., 18 hours
Protocol: as §2

[6] = biological target: T1, trehalose-releasing enzyme (Rhizobium sp. M-11, UniProt Q53238); test: Action of trehalose-releasing enzyme on α-glycosyltrehalose and maltooligosaccharides (Table 13); format: biochemical; conditions: 20% substrate, 2 units/g, 40°C., pH 7.0, 48 hours; label = substrate
T1 construct: M-11 culture
T1 sequence (Q53238 1-596): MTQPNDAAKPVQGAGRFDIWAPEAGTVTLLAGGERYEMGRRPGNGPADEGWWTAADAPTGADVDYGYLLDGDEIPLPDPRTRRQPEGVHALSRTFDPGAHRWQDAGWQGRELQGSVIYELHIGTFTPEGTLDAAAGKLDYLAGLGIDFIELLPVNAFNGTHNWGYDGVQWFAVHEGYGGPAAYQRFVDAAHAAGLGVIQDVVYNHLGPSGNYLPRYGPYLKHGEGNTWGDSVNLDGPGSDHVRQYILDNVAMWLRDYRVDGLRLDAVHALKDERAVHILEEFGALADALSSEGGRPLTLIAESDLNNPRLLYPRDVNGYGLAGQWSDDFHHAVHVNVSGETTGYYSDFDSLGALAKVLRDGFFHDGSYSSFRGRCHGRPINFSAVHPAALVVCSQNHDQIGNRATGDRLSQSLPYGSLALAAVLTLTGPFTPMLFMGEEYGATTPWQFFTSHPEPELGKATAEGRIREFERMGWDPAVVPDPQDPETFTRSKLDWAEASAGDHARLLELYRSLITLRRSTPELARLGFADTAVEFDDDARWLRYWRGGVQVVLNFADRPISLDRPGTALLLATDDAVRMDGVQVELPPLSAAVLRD
Protocol: An aqueous solution containing 20%, d.s.b., of one of the above 5 non-reducing saccharide preparations, namely α-glycosyltrehalose preparations, was prepared, followed by mixing it with 2 units/g substrate, d.s.b., of the purified trehalose-releasing enzyme obtained in Experiment 15, and subjecting the resultant to an enzymatic reaction at 40° C. and pH 7.0 for 48 hours. The resultant each reaction mixture was desalted, and analyzed for saccharide composition on HPLC using "WAKOBEADS WB-T-330 column", a column of Wako Pure Chemical Industries Ltd., Tokyo, Japan. As a control, a fresh preparation of the same trehalose-releasing enzyme was allowed to act on maltotriose, maltotetraose, maltopentaose, maltohexaose or maltoheptaose, and the resultant each reaction mixture was analyzed for saccharide composition on HPLC.

α-amylase = test: Hydrolysis by α-amylase derived from pig pancreas; format: in vitro ADME
Protocol: as §2

[7] = one unit glucoamylase, pH 4.5, 40°C., 6 hours
[8] = one unit, pH 6.9, 37°C., 18 hours

## OC[C@H]1O[C@H](O[C@H]2[C@H](O)[C@@H](O)C(O)O[C@@H]2CO)[C@H](O)[C@@H](O)[C@@H]1O (mixture of isomers) [Maltose]
[1]
  Coloration degree (480 nm): 0.926
[2]
  Formation of saccharide from substrate: no saccharide is formed
  Percentage of remaining substrate on HPLC: 100.0%

## OC[C@H]1OC(O)[C@H](O)[C@@H](O)[C@@H]1O (stereo partly drawn) [Glucose]
[1]
  Coloration degree (480 nm): 1.671
[2]
  Formation of saccharide from substrate: no saccharide is formed
  Percentage of remaining substrate on HPLC: 100.0%

## OC[C@H]1O[C@H](O[C@H]2[C@H](O)[C@@H](O)[C@@H](O[C@H]3[C@H](O)[C@@H](O)[C@@H](O[C@H]4[C@H](O)[C@@H](O)[C@@H](O[C@H]5[C@H](O)[C@@H](O)[C@@H](O[C@H]6[C@H](O)[C@@H](O)[C@@H](O[C@H]7[C@H](O)[C@@H](O)C(O)O[C@@H]7CO)O[C@@H]6CO)O[C@@H]5CO)O[C@@H]4CO)O[C@@H]3CO)O[C@@H]2CO)[C@H](O)[C@@H](O)[C@@H]1O (stereo partly drawn) [Maltoheptaose]
[1]
  Coloration degree (480 nm): 0.271
[2]
  Percentage of newly formed product (P I to P V) on HPLC: 93.4%
  Percentage of remaining substrate on HPLC: 6.7%

## OC[C@H]1O[C@H](O[C@H]2[C@H](O)[C@@H](O)[C@@H](O[C@H]3[C@H](O)[C@@H](O)[C@@H](O[C@H]4[C@H](O)[C@@H](O)[C@@H](O[C@H]5[C@H](O)[C@@H](O)[C@@H](O[C@H]6[C@H](O)[C@@H](O)C(O)O[C@@H]6CO)O[C@@H]5CO)O[C@@H]4CO)O[C@@H]3CO)O[C@@H]2CO)[C@H](O)[C@@H](O)[C@@H]1O (stereo partly drawn) [Maltohexaose]
[1]
  Coloration degree (480 nm): 0.318
[2]
  Percentage of newly formed product (P I to P V) on HPLC: 93.5%
  Percentage of remaining substrate on HPLC: 6.5%

## OC[C@H]1O[C@H](O[C@H]2[C@H](O)[C@@H](O)[C@@H](O[C@H]3[C@H](O)[C@@H](O)[C@@H](O[C@H]4[C@H](O)[C@@H](O)[C@@H](O[C@H]5[C@H](O)[C@@H](O)C(O)O[C@@H]5CO)O[C@@H]4CO)O[C@@H]3CO)O[C@@H]2CO)[C@H](O)[C@@H](O)[C@@H]1O (stereo partly drawn) [Maltopentaose]
[1]
  Coloration degree (480 nm): 0.369
[2]
  Percentage of newly formed product (P I to P V) on HPLC: 92.7%
  Percentage of remaining substrate on HPLC: 7.3%

## OC[C@H]1O[C@H](O[C@H]2[C@H](O)[C@@H](O)[C@@H](O[C@H]3[C@H](O)[C@@H](O)[C@@H](O[C@H]4[C@H](O)[C@@H](O)C(O)O[C@@H]4CO)O[C@@H]3CO)O[C@@H]2CO)[C@H](O)[C@@H](O)[C@@H]1O (stereo partly drawn) [Maltotetraose]
[1]
  Coloration degree (480 nm): 0.475
[2]
  Percentage of newly formed product (P I to P V) on HPLC: 85.6%
  Percentage of remaining substrate on HPLC: 14.4%

## OC[C@H]1O[C@H](O[C@H]2[C@H](O)[C@@H](O)[C@@H](O[C@H]3[C@H](O)[C@@H](O)C(O)O[C@@H]3CO)O[C@@H]2CO)[C@H](O)[C@@H](O)[C@@H]1O (stereo partly drawn) [Maltotriose]
[1]
  Coloration degree (480 nm): 0.623
[2]
  Percentage of newly formed product (P I to P V) on HPLC: 35.0%
  Percentage of remaining substrate on HPLC: 65.0%

## OC[C@H]1O[C@H](O[C@H]2O[C@H](CO)[C@@H](O[C@H]3O[C@H](CO)[C@@H](O)[C@H](O)[C@H]3O)[C@H](O)[C@H]2O)[C@H](O)[C@@H](O)[C@@H]1O [P I, α-glucosyltrehalose]
[3]
  DE (reducing power): 0.83
[1]
  Coloration degree relative to corresponding material maltooligosaccharides: 3-6%
  Coloration degree (480 nm): 0.027
glucoamylase
  Hydrolysis by glucoamylase: hydrolyzed into one glucose molecule and one trehalose molecule
glucoamylase; [7]
  Glucose: 36.2%
  Molecular ratio (Glucose/Trehalose): 1.07
  Trehalose: 63.8%
[4]
  LD50: ≥ 50000 mg/kg
mice
  Mortality: no mouse died
β-amylase
  Hydrolysis by β-amylase: not hydrolyzed
α-glucosidase
  Saccharide composition of hydrolysate by α-glucosidase: Glucose: 36.5%
  Saccharide composition of hydrolysate by α-glucosidase: Other saccharides: 0.5%
  Saccharide composition of hydrolysate by α-glucosidase: Trehalose: 63.0%
[5]
  Saccharide composition of hydrolysate by rat intestinal acetone powder: Glucose: 37.2%
  Saccharide composition of hydrolysate by rat intestinal acetone powder: Other saccharides: 0.4%
  Saccharide composition of hydrolysate by rat intestinal acetone powder: Trehalose: 62.4%
[6]
  Percentage of reducing saccharide released (glucose, maltose, maltotriose, maltotetraose or maltopentaose): 6.5%
  Percentage of trehalose released: 17.5%
α-amylase
  Hydrolysis by α-amylase: not substantially hydrolyzed
α-amylase; [8]
  Saccharide composition of hydrolysate by α-amylase: G1 (glucose): 0
  Saccharide composition of hydrolysate by α-amylase: G2 (maltose): 0.4
  Saccharide composition of hydrolysate by α-amylase: G3 (maltotriose): 2.3
  Saccharide composition of hydrolysate by α-amylase: P I: 97.3
  Saccharide composition of hydrolysate by α-amylase: P II: 0
